# Laboratory results reported in patent publication US10344052B2, “Targeting peptides and uses thereof” (Health Research, Inc., priority 2013, dated 2019).
# Tested on: ADT-perturbed human prostate cancer vasculature
# Test: In vivo selection of Ph.D.-12 phage display library against ADT-perturbed human prostate cancer xenografts, NextGen sequencing of recovered phage
# Conditions: CaP Tissue Specimen 1; xenograft in SCID mouse, 72 h after ADT
# Protocol: Male SCID mice were castrated and pre-implanted with silastic tubing to provide sustained-release of testosterone to maintain human serum levels testosterone in the host mouse and to facilitate castration/androgen deprivation (ADT). Human prostate tumor tissue was prepared for transplantation by cutting the radical prostatectomy surgical remnant in ViaSpan into approximately 1.0 mm^3 to 2.0 mm^3 wedges. Tissue was transplanted, into individual incisions in the skin; four pieces of tissue were transplanted on each flank of mice anesthetized with isoflurane. Each piece of tumor tissue was dipped into Matrigel, inserted into an incision, and the incisions closed with tissue glue.
# Anastamosis of the human vasculature of the prostate cancer xenografts to the host mouse vascular system occurred between Days 5 and 6 after tissue transplantation, and the vasculature had stabilized by Day 21 after transplantation.
# Seventy-two hours after initiation of ADT, the host mouse was anesthetized with acepromazine/ketamine/xylazine and the peptide-phage display library introduced systemically by intra-cardiac injection into the right ventricle. The Ph.D.-12 phage library (NEB, Ipswich, Mass.) was injected at a concentration of 1.2×10^11 pfu in 100 μL. The phage library was allowed to circulate through the mouse host for 15 minutes. At the conclusion of the incubation the vascular volume was replaced by perfusion (40 ml) with PBS to remove unbound phage. […] The xenografts were excised and placed into an eppendorf tube containing 0.5 mL phage elution buffer (0.2 M Glycine-HCl pH 2.2, 0.5% BSA) and the xenografts homogenized with a rotor/stator homogenizer on ice. The phage containing homogenate was cleared by centrifugation at 20,800×G for 5 minutes, and neutralization buffer (Tris-HCl pH 9.1) added to the supernatant. The concentration of phage in the eluate was established by titration: serial 10-fold dilutions of the neutralized phage eluate (10 μl) were added to 200 μL of a mid-log culture of host bacteria (ER2738), the cells/phage mixed with 3.5 mL of molten top agar (48° C.), and plated onto LB. Plates were incubated at 37° C. overnight and blue plaques were counted for determination of pfu. Based on the pfu, an aliquot of the neutralized phage eluate that contained a standardized number of phage was amplified by addition to a 20 mL flask of LB/Tet inoculated with 200 μL of an overnight culture of ER2738, and the culture incubated for 4 hours. The culture was cleared of bacteria by centrifugation, the supernatant treated with ⅙ volume of PEG/NaCl (20% (w/v) PEG-8000, 2.5M NaCl), refrigerated overnight for phage precipitation, and phage recovered by centrifugation. The final phage pellet was resuspended in […] of TBS and titered (as described above). For all in vivo selections the input phage held constant at 1.2×10^11 phage per mouse.
# Following the third sequential round of in vivo selection against tissue from a single patient, the recovered phage population was titered, diluted and plated at a concentration to yield approximately 100 plaques per plate. Individual plaques were picked and amplified for conventional DNA sequencing to verify that a diversity of peptides was selected. Subsequently, the region of the phage genome that contained the random peptides embedded in the pIII protein were amplified by PCR from all selected phage libraries in preparation for Next Gen Sequencing. PCR primers were designed that flanked the hyper-variable region of the phage genome, the region containing the peptide inserted into the pIII protein: (FWD:—3gIII: 5′-CCTTTCTATTCTCACTCTGCT-3′ (SEQ ID NO:98); REV:—155gIII: 5′-CCGTAACACTGAGTTTCGTCA-3′ (SEQ ID NO:99)). The amplified segments were the templates for the NextGen DNA sequencing process. Templates were quantified and concentrations normalized and underwent 454 Next Gen sequencing using 500 ng of amplified template DNA at a concentration of […]. […]
row,Sequence,Recovery of Candidate Peptides Percent of Total Phage After 3 Cycles of Selection
1,AETVESCLAKSH,0.99%
2,DPKFPQNSHLIT,0.63%
3,DQHGFMHIFDL,0.4%
4,GAMHLPWHMGT,0.21%
5,HSAQPVKSKAWL,0.3%
6,KPPQTNTSAPYLP,27.3%
7,LLADTTHHRWT,0.1%
8,SPHWQPNAI,3.29%
9,TLQRTHFPPAFS,9.58%
10,TMGFTAPRFPHY,26.5%

# Same assay, conditions: CaP Tissue Specimen 2; xenograft in SCID mouse, 72 h after ADT
row,Sequence,Recovery of Candidate Peptides Percent of Total Phage After 3 Cycles of Selection
1,AETVESCLAKSH,0.5%
2,DPKFPQNSHLIT,0.35%
3,DQHGFMHIFDL,0.1%
4,GAMHLPWHMGT,46.3%
5,HSAQPVKSKAWL,0.2%
6,KPPQTNTSAPYLP,5.48%
7,LLADTTHHRWT,0.1%
8,SPHWQPNAI,1.53%
9,TLQRTHFPPAFS,7.57%
10,TMGFTAPRFPHY,4.78%

# Same assay, conditions: in words
row,Sequence,recovery
1,GAMHLPWHMGTL,high recovery

# Same assay, conditions: third round of in vivo selection, data of the two tumor specimens combined
row,Sequence,# clones recovered
1,KPPQNTSAPLSS,3
2,KPPQNTSAPY,2
3,KPPQNTSAPYLP,659
4,KPPQNTSAPYLR,2
5,KPPQNTSCAFIF,2
6,SPHWQPNAIFVN,36
7,SPHWQPNAIL,2
8,SPHWQPNAILL,2
9,SPHWQPNAILLM,17
10,TLQRIHFPPAFS,5
11,TLQRTHFPLAFS,3
12,TLQRTHFPPA,30
13,TLQRTHFPPAAG,3
14,TLQRTHFPPAFF,22
15,TLQRTHFPPAFP,3
16,TLQRTHFPPAFR,126
17,TLQRTHFPPAFS,7988
18,TLQRTHFPPAFW,3
19,TLQRTHFPPARR,3

row,Sequence,# clones recovered
1,TLQRTHFPPGVF,5
2,TLQRTHFPPVVF,19
3,TLQRTHFPPVVS,8
4,TLQRTHFPRLFG,3
5,TLQRTHFPRRFG,3
6,TLQRTHFPRRFR,6
7,TLQRTHFPSA,6
8,TLQRTHFPSG,47
9,TLQRTHFPSGV,19
10,TLQRTHFPSGVF,32
11,TLQRTHFPSGVS,14
12,TLQRTHFRPAF,6
13,TLQRTHFRPAFR,21
14,TLQRTHFRRRF,5
15,TLQRTHFRRRFG,95
16,TLQRTHFSAGVF,116
17,TLQRTHFSPAFS,4
18,TLQRTHFSVR,4
19,TLQRTLFPPVVS,14

row,Sequence,# clones recovered
1,TLQRTLFSAGRF,32
2,TLQRTLFSAGVF,9
3,TMGFTAPRFP,9
4,TMGFTAPRFPAL,2
5,TMGFTAPRFPHC,2
6,TMGFTAPRFPHH,3
7,TMGFTAPRFPHL,4
8,TMGFTAPRFPHM,2
9,TMGFTAPRFPHQ,8
10,TMGFTAPRFPHR,4
11,TMGFTAPRFPLL,6
12,TMGFTAPRFPSV,2
13,TMGFTAPRFQHY,2
14,TMGFTAPRFRIM,5
15,TMGFTAPRRGAV,2
16,TMGFTAPWFPHY,2
17,TMGLTHSRVRIE,2
18,TXGFTAPRFPHY,47
